According to ChEMBL document CHEMBL5678818, “Discovery of potent SOS1 inhibitors that block RAS activation via disruption of the RAS-SOS1 interaction” (Proc Natl Acad Sci U S A, 2019):

Assays:
[1] = target: Serine/threonine-protein kinase WNK2 (Homo sapiens) (UniProt Q9Y3S1); test: Inhibition of WNK2 (unknown origin) assessed as residual activity at 1000 nM by KINOMEscan analysis relative to control
[2] = test system: Tyrosine-protein kinase ABL1 (Homo sapiens), P00519 [Q252H]; test: Inhibition of nonphosphorylated ABL1 Q252H mutant (unknown origin) assessed as residual activity at 100 nM by KINOMEscan analysis relative to control
[3] = target: Phosphatidylinositol 4-kinase beta (Homo sapiens) (UniProt Q9UBF8); test: Inhibition of PIK4CB (unknown origin) assessed as residual activity at 100 nM by KINOMEscan analysis relative to control
[4] = target: T1, Serine/threonine-protein kinase LATS1 (Homo sapiens) (UniProt O95835); test: Inhibition of LATS1 (unknown origin) assessed as residual activity at 100 nM by KINOMEscan analysis relative to control
T1 sequence (whole entry): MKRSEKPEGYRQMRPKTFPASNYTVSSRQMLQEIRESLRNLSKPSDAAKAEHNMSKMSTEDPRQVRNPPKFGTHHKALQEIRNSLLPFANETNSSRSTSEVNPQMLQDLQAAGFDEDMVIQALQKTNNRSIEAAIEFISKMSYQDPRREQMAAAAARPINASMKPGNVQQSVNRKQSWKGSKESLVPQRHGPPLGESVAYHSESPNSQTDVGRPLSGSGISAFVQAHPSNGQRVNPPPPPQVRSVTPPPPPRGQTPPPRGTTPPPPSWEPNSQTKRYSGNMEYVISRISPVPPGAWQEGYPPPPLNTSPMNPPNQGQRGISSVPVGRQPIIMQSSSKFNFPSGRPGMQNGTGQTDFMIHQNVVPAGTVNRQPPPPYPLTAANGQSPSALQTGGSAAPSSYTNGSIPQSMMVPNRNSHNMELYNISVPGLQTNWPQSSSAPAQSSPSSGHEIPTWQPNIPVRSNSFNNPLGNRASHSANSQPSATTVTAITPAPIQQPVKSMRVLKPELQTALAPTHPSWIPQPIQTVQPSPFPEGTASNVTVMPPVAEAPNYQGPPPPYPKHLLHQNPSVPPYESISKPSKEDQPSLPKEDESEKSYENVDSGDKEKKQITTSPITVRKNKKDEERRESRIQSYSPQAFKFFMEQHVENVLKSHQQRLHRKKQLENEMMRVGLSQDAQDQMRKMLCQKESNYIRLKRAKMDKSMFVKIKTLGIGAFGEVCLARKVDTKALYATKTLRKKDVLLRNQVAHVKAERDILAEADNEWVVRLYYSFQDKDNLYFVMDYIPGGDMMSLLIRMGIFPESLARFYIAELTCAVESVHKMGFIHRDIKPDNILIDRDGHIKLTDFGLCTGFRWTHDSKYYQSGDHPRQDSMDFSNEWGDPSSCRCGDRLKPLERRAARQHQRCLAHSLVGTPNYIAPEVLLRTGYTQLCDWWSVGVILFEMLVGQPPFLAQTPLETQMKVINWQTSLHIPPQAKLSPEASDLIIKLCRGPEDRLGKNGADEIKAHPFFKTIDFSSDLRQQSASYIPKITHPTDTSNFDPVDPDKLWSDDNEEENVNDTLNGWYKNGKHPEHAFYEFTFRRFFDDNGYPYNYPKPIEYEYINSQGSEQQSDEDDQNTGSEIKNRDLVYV

[5] = target: Receptor tyrosine-protein kinase erbB-4 (Homo sapiens) (UniProt Q15303); test: Inhibition of ERBB4 (unknown origin) assessed as residual activity at 100 nM by KINOMEscan analysis relative to control
[6] = target: High affinity nerve growth factor receptor (Homo sapiens) (UniProt P04629); test: Inhibition of TRKA (unknown origin) assessed as residual activity at 100 nM by KINOMEscan analysis relative to control
[7] = test system: Phosphatidylinositol 4,5-bisphosphate 3-kinase catalytic subunit alpha isoform (Homo sapiens), P42336 [I800L]; test: Inhibition of PIK3CA I800L mutant (unknown origin) assessed as residual activity at 100 nM by KINOMEscan analysis relative to control
[8] = target: T2, Serine/threonine-protein kinase PLK4 (Homo sapiens) (UniProt O00444); test: Inhibition of PLK4 (unknown origin) assessed as residual activity at 100 nM by KINOMEscan analysis relative to control
T2 sequence (whole entry): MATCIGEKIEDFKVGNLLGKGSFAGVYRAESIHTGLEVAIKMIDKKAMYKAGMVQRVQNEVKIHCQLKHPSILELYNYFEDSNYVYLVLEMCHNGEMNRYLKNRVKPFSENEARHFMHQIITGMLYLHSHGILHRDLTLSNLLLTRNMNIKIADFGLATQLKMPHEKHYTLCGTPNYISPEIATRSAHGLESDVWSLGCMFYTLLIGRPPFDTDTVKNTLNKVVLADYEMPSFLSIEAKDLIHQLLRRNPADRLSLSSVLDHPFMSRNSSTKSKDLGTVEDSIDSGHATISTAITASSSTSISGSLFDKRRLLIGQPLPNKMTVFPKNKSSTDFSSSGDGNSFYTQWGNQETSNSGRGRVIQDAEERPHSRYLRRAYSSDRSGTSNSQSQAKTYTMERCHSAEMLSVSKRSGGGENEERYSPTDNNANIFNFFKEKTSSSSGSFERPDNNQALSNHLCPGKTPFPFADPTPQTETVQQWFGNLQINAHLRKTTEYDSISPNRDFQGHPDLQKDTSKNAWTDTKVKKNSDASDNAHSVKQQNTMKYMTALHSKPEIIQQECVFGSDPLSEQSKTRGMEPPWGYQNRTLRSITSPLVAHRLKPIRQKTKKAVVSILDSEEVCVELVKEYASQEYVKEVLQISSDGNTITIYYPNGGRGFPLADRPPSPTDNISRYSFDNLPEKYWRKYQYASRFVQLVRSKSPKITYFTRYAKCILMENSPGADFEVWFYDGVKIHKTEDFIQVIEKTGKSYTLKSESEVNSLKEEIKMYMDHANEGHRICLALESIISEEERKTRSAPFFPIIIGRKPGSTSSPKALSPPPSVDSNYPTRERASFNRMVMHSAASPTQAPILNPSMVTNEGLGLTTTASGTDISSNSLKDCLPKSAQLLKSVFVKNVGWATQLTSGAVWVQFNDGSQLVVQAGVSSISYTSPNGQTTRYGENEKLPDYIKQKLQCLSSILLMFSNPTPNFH

[9] = test system: Phosphatidylinositol 4,5-bisphosphate 3-kinase catalytic subunit alpha isoform (Homo sapiens), P42336 [E545K]; test: Inhibition of PIK3CA E545K mutant (unknown origin) assessed as residual activity at 100 nM by KINOMEscan analysis relative to control
[10] = target: Serine/threonine-protein kinase 32B (Homo sapiens) (UniProt Q9NY57); test: Inhibition of YANK2 (unknown origin) assessed as residual activity at 100 nM by KINOMEscan analysis relative to control
[11] = target: Cyclin-dependent kinase 9 (Homo sapiens) (UniProt P50750); test: Inhibition of CDK9 (unknown origin) assessed as residual activity at 100 nM by KINOMEscan analysis relative to control
Sequence of Cyclin-dependent kinase 9 (Homo sapiens) (P50750 whole entry): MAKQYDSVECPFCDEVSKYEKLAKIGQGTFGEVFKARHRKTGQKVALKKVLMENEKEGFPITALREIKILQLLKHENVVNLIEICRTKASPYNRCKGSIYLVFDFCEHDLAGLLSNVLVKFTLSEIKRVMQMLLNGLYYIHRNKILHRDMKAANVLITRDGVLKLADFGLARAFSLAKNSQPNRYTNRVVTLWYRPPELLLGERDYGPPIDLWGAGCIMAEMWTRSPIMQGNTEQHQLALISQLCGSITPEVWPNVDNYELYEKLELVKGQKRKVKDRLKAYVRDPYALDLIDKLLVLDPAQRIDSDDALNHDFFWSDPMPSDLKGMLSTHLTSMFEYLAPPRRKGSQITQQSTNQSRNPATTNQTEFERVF

Sequence of Phosphatidylinositol 4-kinase beta (Homo sapiens) (Q9UBF8 2-816 limits assumed): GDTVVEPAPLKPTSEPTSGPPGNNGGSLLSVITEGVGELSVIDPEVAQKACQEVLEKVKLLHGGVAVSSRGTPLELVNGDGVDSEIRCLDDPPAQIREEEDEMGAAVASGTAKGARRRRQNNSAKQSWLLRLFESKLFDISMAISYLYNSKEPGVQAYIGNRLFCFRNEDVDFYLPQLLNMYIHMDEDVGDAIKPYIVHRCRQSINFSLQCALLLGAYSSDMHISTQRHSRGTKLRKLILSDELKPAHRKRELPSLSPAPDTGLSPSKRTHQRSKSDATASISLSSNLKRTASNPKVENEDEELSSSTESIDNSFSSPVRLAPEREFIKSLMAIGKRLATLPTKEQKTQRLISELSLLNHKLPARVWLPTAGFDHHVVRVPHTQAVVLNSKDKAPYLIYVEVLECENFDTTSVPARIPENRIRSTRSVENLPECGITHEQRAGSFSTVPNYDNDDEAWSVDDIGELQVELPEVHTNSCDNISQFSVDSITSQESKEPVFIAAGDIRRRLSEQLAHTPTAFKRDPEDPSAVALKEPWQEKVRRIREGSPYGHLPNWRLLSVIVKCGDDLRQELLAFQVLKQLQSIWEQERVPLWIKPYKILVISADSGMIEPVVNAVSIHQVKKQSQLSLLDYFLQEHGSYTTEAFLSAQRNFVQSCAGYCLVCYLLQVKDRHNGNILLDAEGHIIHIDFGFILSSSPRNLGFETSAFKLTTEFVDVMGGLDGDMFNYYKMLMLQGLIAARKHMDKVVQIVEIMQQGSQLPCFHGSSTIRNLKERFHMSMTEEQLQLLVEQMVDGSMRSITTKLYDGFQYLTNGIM
Sequence of Phosphatidylinositol 4,5-bisphosphate 3-kinase catalytic subunit alpha isoform (Homo sapiens), P42336 [I800L] (P42336 whole entry I800L, canonical isoform): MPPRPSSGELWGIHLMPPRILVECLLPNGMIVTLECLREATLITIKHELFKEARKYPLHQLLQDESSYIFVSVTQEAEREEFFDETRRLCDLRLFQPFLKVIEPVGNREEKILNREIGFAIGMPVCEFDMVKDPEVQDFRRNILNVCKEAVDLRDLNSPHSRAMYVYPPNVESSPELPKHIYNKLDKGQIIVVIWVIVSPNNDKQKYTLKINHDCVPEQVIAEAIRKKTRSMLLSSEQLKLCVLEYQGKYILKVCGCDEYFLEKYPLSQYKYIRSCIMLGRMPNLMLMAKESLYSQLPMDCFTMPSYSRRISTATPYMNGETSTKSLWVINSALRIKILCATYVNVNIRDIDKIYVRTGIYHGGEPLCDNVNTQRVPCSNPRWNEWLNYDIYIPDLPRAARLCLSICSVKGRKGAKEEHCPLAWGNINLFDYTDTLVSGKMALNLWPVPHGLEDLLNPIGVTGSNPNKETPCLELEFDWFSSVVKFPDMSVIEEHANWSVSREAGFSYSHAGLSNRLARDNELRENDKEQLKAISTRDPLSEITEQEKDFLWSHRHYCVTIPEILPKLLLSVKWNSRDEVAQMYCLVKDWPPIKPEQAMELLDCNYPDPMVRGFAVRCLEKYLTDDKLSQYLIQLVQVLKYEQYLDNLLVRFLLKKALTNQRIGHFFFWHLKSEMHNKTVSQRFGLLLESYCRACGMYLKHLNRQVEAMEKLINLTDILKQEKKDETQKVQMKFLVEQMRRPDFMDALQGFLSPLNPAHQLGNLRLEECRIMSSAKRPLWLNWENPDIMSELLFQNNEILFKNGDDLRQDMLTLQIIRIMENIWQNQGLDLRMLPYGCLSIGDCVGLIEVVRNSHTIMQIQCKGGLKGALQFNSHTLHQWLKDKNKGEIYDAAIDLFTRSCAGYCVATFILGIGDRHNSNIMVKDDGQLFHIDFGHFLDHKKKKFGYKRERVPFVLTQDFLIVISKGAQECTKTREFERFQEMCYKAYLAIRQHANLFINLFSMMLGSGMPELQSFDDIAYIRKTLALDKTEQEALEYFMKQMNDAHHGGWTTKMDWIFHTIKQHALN
Sequence of Serine/threonine-protein kinase WNK2 (Homo sapiens) (Q9Y3S1 whole entry): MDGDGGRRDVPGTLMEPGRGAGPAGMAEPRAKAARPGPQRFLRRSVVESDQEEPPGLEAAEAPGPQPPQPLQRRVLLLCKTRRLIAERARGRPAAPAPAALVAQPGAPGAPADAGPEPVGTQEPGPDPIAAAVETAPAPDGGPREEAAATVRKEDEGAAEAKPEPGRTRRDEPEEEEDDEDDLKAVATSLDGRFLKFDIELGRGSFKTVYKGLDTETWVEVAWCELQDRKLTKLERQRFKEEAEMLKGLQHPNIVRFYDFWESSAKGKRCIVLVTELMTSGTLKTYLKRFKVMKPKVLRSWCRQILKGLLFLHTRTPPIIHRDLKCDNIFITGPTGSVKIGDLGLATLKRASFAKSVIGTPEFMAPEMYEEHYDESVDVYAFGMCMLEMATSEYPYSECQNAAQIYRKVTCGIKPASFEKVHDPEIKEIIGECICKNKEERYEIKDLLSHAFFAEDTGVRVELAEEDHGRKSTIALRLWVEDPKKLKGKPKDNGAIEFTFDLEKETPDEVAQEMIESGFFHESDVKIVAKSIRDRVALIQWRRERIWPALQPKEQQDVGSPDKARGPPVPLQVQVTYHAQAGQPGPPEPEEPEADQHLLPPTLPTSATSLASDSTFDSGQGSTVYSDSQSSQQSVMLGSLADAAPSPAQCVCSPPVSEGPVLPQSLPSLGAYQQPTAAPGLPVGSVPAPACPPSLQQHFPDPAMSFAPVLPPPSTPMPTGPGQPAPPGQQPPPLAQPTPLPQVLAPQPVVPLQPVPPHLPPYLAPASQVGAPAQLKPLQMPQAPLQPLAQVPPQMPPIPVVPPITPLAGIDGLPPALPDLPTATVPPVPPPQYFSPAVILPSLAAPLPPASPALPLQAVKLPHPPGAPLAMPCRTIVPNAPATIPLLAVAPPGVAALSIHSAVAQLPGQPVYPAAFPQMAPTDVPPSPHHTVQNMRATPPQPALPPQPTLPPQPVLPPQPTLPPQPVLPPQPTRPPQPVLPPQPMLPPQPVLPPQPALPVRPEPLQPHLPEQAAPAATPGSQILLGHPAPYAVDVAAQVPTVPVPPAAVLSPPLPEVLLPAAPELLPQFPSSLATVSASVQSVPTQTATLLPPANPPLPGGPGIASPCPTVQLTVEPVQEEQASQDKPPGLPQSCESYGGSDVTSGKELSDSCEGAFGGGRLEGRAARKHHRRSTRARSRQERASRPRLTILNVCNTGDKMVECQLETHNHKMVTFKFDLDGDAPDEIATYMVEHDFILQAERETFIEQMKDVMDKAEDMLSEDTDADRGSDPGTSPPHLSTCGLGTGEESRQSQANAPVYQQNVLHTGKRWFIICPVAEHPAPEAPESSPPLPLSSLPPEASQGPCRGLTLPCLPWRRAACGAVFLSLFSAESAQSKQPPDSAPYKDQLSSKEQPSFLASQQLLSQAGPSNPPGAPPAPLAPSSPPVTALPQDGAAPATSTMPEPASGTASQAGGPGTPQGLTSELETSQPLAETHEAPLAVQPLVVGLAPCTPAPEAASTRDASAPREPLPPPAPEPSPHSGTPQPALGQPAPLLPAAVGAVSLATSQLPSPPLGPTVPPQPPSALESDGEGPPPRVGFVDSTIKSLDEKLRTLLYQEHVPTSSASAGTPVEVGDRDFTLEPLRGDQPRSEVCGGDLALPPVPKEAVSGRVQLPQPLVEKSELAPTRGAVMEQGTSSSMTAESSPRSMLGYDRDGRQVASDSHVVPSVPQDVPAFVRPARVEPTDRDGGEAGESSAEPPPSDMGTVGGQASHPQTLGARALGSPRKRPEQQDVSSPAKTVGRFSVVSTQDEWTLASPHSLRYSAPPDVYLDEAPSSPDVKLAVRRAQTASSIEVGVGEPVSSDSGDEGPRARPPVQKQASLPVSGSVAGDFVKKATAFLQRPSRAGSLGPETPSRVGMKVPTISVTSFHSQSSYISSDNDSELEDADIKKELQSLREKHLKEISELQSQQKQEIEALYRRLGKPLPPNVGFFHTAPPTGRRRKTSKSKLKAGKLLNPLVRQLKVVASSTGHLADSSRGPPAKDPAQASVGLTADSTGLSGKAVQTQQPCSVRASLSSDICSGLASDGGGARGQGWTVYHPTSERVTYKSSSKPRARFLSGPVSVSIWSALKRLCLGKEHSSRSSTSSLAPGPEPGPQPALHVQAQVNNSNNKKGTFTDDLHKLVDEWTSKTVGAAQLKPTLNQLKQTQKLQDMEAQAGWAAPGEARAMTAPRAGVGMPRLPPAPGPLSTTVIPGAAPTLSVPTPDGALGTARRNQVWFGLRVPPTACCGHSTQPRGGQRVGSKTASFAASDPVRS
Sequence of Serine/threonine-protein kinase 32B (Homo sapiens) (Q9NY57 whole entry): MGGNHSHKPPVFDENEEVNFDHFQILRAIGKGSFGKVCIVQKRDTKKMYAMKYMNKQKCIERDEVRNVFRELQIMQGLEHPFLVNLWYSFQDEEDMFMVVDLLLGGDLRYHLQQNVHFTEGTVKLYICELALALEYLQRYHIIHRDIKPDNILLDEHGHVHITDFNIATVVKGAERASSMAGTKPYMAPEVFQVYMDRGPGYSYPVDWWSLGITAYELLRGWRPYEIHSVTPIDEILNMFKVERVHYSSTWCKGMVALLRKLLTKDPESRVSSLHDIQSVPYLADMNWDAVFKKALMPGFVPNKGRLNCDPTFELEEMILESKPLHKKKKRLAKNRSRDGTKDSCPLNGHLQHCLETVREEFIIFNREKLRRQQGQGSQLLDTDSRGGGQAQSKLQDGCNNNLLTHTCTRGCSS
Sequence of Phosphatidylinositol 4,5-bisphosphate 3-kinase catalytic subunit alpha isoform (Homo sapiens), P42336 [E545K] (P42336 whole entry E545K, canonical isoform): as the sequence (P42336 whole entry I800L, canonical isoform) above, with E545K, L800I counted along it

## COc1cc2nc(C)nc(N[C@H](C)c3cccc(-c4cn[nH]c4)c3)c2cc1OC
[1]
  Activity: 100%

## COc1cc2ncnc(N[C@H](C)c3cccc4ccccc34)c2cc1OC
[2]
  Activity: 100%
[3]
  Activity: 83%
[4]
  Activity: 97%
[5]
  Activity: 100%
[6]
  Activity: 100%
[7]
  Activity: 98%
[8]
  Activity: 87%
[9]
  Activity: 75%
[10]
  Activity: 84%
[11]
  Activity: 89%
